Measurements taken from ChEMBL document CHEMBL3832553, “DailyMed|setid=be8e0025-5726-4965-9510-e7e657687d23 | AVELOX - moxifloxacin hydrochloride tablet, coated|Lake Erie Medical Supply DBA Quality Care Products LLC”.
Where “and” joins values, the source holds several entries; their conditions need not be identical. Equal entries are not always repeated.

Experiments:
Type in all cases: ADME, organism-based
Homo sapiens [1] = test: (§1) Pharmacokinetic parameters for Moxifloxacin hydrochloride following single oral or intravenous administration of 400 mg Moxifloxacin to healthy or patient male and/or female; set-up: dose 400 mg, route iv, route oral; conditions: in vivo, dosed compound id 1, dosed compound name MOXIFLOXACIN, regimen Single dose, study dosing duration 1 hr, tissue Plasma; for Cmax: po
[2] = as §1; set-up: dose 400 mg, route iv, route oral; conditions: human, in vivo, 400 mg, dosed compound id 1, dosed compound name MOXIFLOXACIN, regimen Single dose, tissue Plasma
[3] = Pharmacokinetic parameters for Moxifloxacin hydrochloride following oral administration of Moxifloxacin.; conditions: human, in vivo, dosed compound id 1, dosed compound name MOXIFLOXACIN, tissue Plasma
Homo sapiens [4] = test: (§2) Pharmacokinetic parameters for Moxifloxacin hydrochloride following multiple oral administration of 400 mg Moxifloxacin to male Japanese or Caucasian healthy or patient male and/or female; set-up: dose 400 mg, route iv, route oral; conditions: in vivo, dosed compound id 1, dosed compound name MOXIFLOXACIN, regimen Multiple dose, tissue Plasma
[5] = as §2; set-up: dose 400 mg, route iv, route oral; conditions: human, in vivo, 400 mg, dosed compound id 1, dosed compound name MOXIFLOXACIN, regimen Multiple dose, tissue Plasma

**Q.** What does the source list for `COc1c(N2C[C@@H]3CCCN[C@@H]3C2)c(F)cc2c(=O)c(C(=O)O)cn(C3CC3)c12.Cl` [MOXIFLOXACIN HYDROCHLORIDE]?
**A.** AUC (Homo sapiens [1]; gender young male and female): 39300 ng·h/mL; Cmax (Homo sapiens [1]; gender female): 4500 ng/mL; Cmax (Homo sapiens [1]; gender male and female): 4300 ng/mL; Cmax (Homo sapiens [1]; gender male): 4400 ng/mL; Cmax (Homo sapiens [1]; gender young male and female): 3900 ng/mL; AUC [2]: 36100 ng·h/mL; Cmax ([2]; po): 3100 ng/mL; bioavailability [3]: 90%; Cmax (Homo sapiens [4]; gender elderly male amd female, study dosing duration 1 hr): 6100 ng/mL; AUC (Homo sapiens [4]; gender elderly male): 51800 ng·h/mL; Cmax (Homo sapiens [4]; gender elderly male): 3800 ng/mL; Cmax (Homo sapiens [4]; gender female, study dosing duration 1 hr): 4600 ng/mL; Cmax (Homo sapiens [4]; gender male and female, study dosing duration 1 hr): 4100 ng/mL and 4700 ng/mL; AUC (Homo sapiens [4]; gender young female): 49300 ng·h/mL; Cmax (Homo sapiens [4]; gender young female): 4200 ng/mL; AUC (Homo sapiens [4]; gender young male, study dosing duration 1 hr): 38000 ng·h/mL; AUC (Homo sapiens [4]; gender young male): 48200 ng·h/mL; Cmax (Homo sapiens [4]; gender young male): 3600 ng/mL; AUC(0-24) (Homo sapiens [4]): 47000 ng·h/mL; AUC ([5]; gender young male and female, read-out: AUC): 48000 ng·h/mL; Cmax ([5]; gender young male and female, read-out: Cmax): 4500 ng/mL; AUC ([5]; read-out: AUC(0-24)): 47000 ng·h/mL; Cmax ([5]; read-out: Cmax ss): 4100 ng/mL
